Measurements reported in PMC9569790, “From Solution Studies of Pharmaceuticals (Aspirin and Related Compounds) to the Thermodynamics of Aspirin-β-Cyclodextrin Interaction in water and N,N-Dimethylformamide” (International Journal of Molecular Sciences, 2022).

How the values were obtained:
[1] = Conductance measurements in water; format: physicochemical; conditions: water, 298.15 K
Procedure: H^+ (aq) + A^− (aq) ⇌ HA (aq)(1)
The ion-pair formation constant for the process described by Equation (1) is expressed in terms of activities, a, as shown in Equation (2): (2) Kip=aHA/aH^+∗aA^−=HA∗γHA/H^+∗[A^−]∗γ±i^2
The conductivity cell constant was determined by the method of Jones and Bradshaw [39] as previously reported [24]. Conductance measurements were performed using the Wayne Kerr Autobalance Universal Bridge, type B642, and the Wayne Kerr Model 7330 Automatic LCR Meter Conductivity Bridge at a frequency of 1 Hz. […] Conductance readings at 298.15 K were recorded after each addition.

[2] = Calorimetric enthalpies of solution in water; format: physicochemical; conditions: 298.15 K; for ΔsH^0, standard enthalpy of solution: average of the ΔsH values
Description: No measurements could be carried out at higher concentrations since the dissolution rate of this compound in water was relatively slow. […] Since there were no systematic changes in the ΔsH values with changes in the concentration of solute, the standard ΔsH^0 value reported in Table 3 is the average value. In the dissolution of a solute in water or any other solvent, there are two processes involved, as described in Equation (5):ΔsH^0 = ΔclH^0 + ΔsolvH^0(5)
(§1) The reliability of the calorimeter was checked by carrying out the standard reaction based on the protonation of an aqueous solution of tris-(hydroxymethyl)aminomethane (THAM) with an aqueous solution of hydrochloric acid (0.1 mol dm^−3) at 298.15 K (Equation (11)). H2NC(CH2OH)3(aq) + H3O+ (aq) → H3N+C(CH2OH)3(aq) + H2O(aq)(11)
(§2) The system was then placed in a water bath until thermal equilibrium was attained, after which the ampoule was broken into the solvent and the process was monitored by the chart recorder. The observed heat was corrected for the heat of the breaking of the empty ampoule in the solvent. The standard enthalpy of the solution, ∆sH^0, was found from […].

[3] = Calorimetric enthalpies of solution in DMF; format: physicochemical; conditions: 298.15 K
Description: All observed heats were corrected for the heat from breaking the empty ampoules in DMF (Q = −0.0518 J). Since there were no systematic changes in the ΔsH values with changes in the concentration of the solute, the reported standard ΔsH^0 values are the average values of the data reported in Table 5. This table also includes the standard deviations of the data.
as §1, §2

[4] = Gibbs free energy and entropies of solution in water, corrected for ion-pair formation; format: physicochemical; conditions: 298.15 K
Description: In Equation (2), concentrations are in mol dm^−3, and γ ± i^2 is the mean molar ionic coefficient calculated by the use of the Debye–Hückel equation, where γHA is the activity coefficient of the un-ionized species. In very dilute solutions, γHA may be considered equal to unity. As far as the standard Gibbs energy of the solution in the standard state of 1 mol dm^−3, ∆sG^0, is concerned, the application of Equation (3) requires knowledge of the ion-pair formation constant in solution. The availability of Kip and solubilities in water allows the calculation the ionic molar concentration, ci, and the molar concentration of ion pairs, cip, as previously shown. The data refer to the standard state (1 mol dm^−3). ΔsG^0= −RTln (ci^2 * γ±i^2)(3)
In Equation (6), aH^+ and aA^− represent the activities of the species H^+ and A^− in solution respectively. The activity of the solid is unity by convention. The activity, a, on the molar scale (mol dm^−3) is related to the ionic molar concentration, ci, by the mean molar ionic activity coefficient, γ ± i.
Thus:K^0sp = ci^2 ∗ γ ± i^2 (7)
The availability of Gibbs energy (Equation (3)) and enthalpy values allows the calculation of the entropy of solution, ΔsS. For this purpose, the following equation was used.

[5] = Transfer thermodynamic parameters from water to DMF; format: physicochemical; conditions: 298.15 K
Description: As mentioned earlier, ΔsH^0 is made by the contribution of the crystal lattice enthalpy and the solvation enthalpy. In order to remove the contribution of the crystal lattice process, it is a common practice to calculate the transfer thermodynamic parameters according to the following process: […]

[6] = Solvate formation test in a solvent-saturated atmosphere; format: physicochemical; conditions: water
Procedure: The mixtures were left in a thermostatic bath at 298.15 K until equilibrium was reached. Aliquots of the saturated solutions were removed and analyzed gravimetrically by taking a known volume of sample, evaporating the solvent and then weighing the solid in a dry atmosphere. The weighing process was repeated until a constant weight was obtained. The analytical determination was carried out in triplicate on the same equilibrium mixture. Solvate formation was tested by storing the compounds over water or DMF in a desiccator containing an atmosphere saturated with the appropriate solvent over a period of at least four days.

[7] = water, same temperature, conductimetry; cited from earlier work

In the case of `CC(=O)Oc1ccc(C(=O)O)cc1` [4-acetoxybenzoic acid], the “Ka, dissociation constant” value [1] is reported as 4.55 × 10^−5, the “Kip, ion-pair formation constant” value [1] is reported as 22 × 10^3 and the “Λ^0m, molar conductance at infinite dilution” value [1] is reported as 401 S cm^2 mol^−1. The pKa ([1]; conductance, read-out: pKa) was 4.34, the “ΔsH^0, standard enthalpy of solution” value [2] was 20 kJ/mol and the “ΔsH^0, standard enthalpy of solution” value ([2]; listed as 4-Acetoxybenzoic Acid) was “ΔsH^0 = 20 ± 1 kJ mol^−1”. For the same molecule, the “ΔsH, enthalpy of solution” value ([2]; c = 4.51 × 10^−4 mol dm^−3) was 18.9 kJ/mol, the “ΔsH, enthalpy of solution” value ([2]; c = 4.57 × 10^−4 mol dm^−3) was 18.33 kJ/mol and the “ΔsH, enthalpy of solution” value ([2]; c = 4.66 × 10^−4 mol dm^−3) was 20.25 kJ/mol. The “ΔsH, enthalpy of solution” value ([2]; c = 4.90 × 10^−4 mol dm^−3) was 20.51 kJ/mol, the “ΔsH, enthalpy of solution” value ([2]; c = 6.17 × 10^−4 mol dm^−3) was 20.62 kJ/mol and the “ΔsH, enthalpy of solution” value ([2]; c = 6.75 × 10^−4 mol dm^−3) was 20.99 kJ/mol. The “ΔsH^0, standard enthalpy of solution” value ([3]; average of the ΔsH values) was 3.9 ± 0.1 kJ/mol, the “ΔsH, enthalpy of solution” value ([3]; c = 1.03 × 10^−3 mol dm^−3) was 3.89 kJ/mol and the “ΔsH, enthalpy of solution” value ([3]; c = 1.18 × 10^−3 mol dm^−3) was 4.10 kJ/mol. The “ΔsH, enthalpy of solution” value ([3]; c = 1.26 × 10^−3 mol dm^−3) was 3.97 kJ/mol, the “ΔsH, enthalpy of solution” value ([3]; c = 1.60 × 10^−3 mol dm^−3) was 3.99 kJ/mol and the “ΔsH, enthalpy of solution” value ([3]; c = 1.82 × 10^−3 mol dm^−3) was 3.8 kJ/mol. For the same molecule, the “ΔsS^0, entropy of solution” value [4] was −58 J K^−1 mol^−1, the pKsp ([4]; corrected for ion-pair formation) was 6.57 and the “ΔsG^0, standard Gibbs energy of solution” value ([4]; standard state 1 mol dm^−3) was 37.5 kJ/mol. For the same molecule, the “ΔtH^0, enthalpy of transfer” value [5] was -16.1 kJ/mol, the Solvate formation [6] was “not detected” and the “pKa (literature)” value [7] was 4.38.
With `CC(=O)c1ccc(O)c(C(=O)O)c1` [5-acetylsalicylate] the “Ionic conductivity at infinite dilution of the anion, λA^−” value ([1]; from Λ^0m and λH^+ = 349.8) was 39.2 S cm^2 mol^−1.
